This is an account of results in patent publication US9980489B2, “Stabilized bio-available soluble silicate solution” (priority 2010, dated 2018).

The assay has as its system silicon accumulator plants, silicon diffusion plants and silicon rejecting plants. Conditions: foliar spray every week, solution containing 0002 mg/ml Si.

With silicic acid, the “effect on growth, production, resistance to infection, color of fruits, shelf life” value is “clear effect”.
